# In patent US6194450A, “Polyaromatic heterocyclic compounds and pharmaceutical compositions comprised thereof” (Centre International de Recherches Dermatologiques Galderma, priority 1995, dated 2001):
# Assays:
# [1] = system: mouse embryonic teratocarcinoma F9 cells; test: Differentiation of mouse embryonic teratocarcinoma F9 cells (plasminogen activator secretion); format: cell-based; conditions: concentration producing half of the maximum amount of plasminogen activator secreted
# Source text: Their activities may also be measured in tests of cell transactivation using pretransfected recombinant RAR or RXR receptors (B. A. Bernard et al, Biochemical and Biophysical Research Communication, vol. 186, 977-983 (1992); M. F. Boehm et al, Journal of Medicinal Chemistry, 37, 408-414 (1994)).
# This differentiation was characterized by the secretion of the plasminogen activator into the culture medium. The activity of the compound is expressed by the AC50 value, which represents the concentration of test compound which produces half of the maximum amount of plasminogen activator secreted.
# RARα = target: T1, RARα (Homo sapiens, UniProt P10276); test: RAR Transactivation, RARα (HeLa cells cotransfected with human RAR expression vector and TREpp-tk-CAT reporter); format: cell-based; conditions: concentration eliciting 50% of the maximum CAT activity
# T1 construct: expressed in transfected cells
# T1 sequence (P10276 1-462): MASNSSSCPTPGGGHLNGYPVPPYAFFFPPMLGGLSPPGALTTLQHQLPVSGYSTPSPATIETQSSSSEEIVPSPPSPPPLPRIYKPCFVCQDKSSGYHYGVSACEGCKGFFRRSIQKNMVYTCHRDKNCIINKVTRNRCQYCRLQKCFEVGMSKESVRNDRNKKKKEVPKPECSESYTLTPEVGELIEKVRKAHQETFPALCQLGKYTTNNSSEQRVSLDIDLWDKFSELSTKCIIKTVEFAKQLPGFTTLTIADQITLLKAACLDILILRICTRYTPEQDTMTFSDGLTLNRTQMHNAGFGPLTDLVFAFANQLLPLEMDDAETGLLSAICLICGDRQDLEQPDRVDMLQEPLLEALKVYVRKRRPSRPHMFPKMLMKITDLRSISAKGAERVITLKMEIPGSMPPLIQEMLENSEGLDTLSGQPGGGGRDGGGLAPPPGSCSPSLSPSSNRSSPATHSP
# Method: (§1) (b) This test was carried out as described in the publication: Bernard B. A., Bernardon J. M., Delescluse C., Martin C., Lenoir M. C., Maignan J., Carpentier B., Pilgrim W. R., Reichert U. and Shroot B., Biochem. Biophys. […] HeLa cells were cotransfected with expression vectors coding for human RARs and the reporter plasmid TREpp-tk-CAT. The value given represents the concentration of test compound which elicited 50% of the maximum CAT activity.
# RARγ = target: T2, RARγ (Homo sapiens, UniProt P13631); test: RAR Transactivation, RARγ (HeLa cells cotransfected with human RAR expression vector and TREpp-tk-CAT reporter); format: cell-based; conditions: concentration eliciting 50% of the maximum CAT activity
# T2 construct: expressed in transfected cells; host or cells: HeLa
# T2 sequence (P13631 1-454): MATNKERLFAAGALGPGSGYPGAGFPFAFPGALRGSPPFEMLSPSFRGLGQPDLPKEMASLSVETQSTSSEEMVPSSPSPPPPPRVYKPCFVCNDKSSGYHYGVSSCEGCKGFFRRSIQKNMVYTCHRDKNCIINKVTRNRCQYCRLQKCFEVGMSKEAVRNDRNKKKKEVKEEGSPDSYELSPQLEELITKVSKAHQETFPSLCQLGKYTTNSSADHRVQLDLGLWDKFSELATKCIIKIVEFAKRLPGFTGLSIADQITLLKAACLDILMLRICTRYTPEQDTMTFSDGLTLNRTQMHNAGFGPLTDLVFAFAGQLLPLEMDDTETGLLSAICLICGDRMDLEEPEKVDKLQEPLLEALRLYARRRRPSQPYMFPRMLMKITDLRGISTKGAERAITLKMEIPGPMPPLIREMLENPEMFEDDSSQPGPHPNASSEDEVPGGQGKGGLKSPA
# Method: as §1
# RARβ [2] = target: T3, RARβ (Homo sapiens, UniProt P10826); test: RAR Transactivation, RARβ (HeLa cells cotransfected with human RAR expression vector and TREpp-tk-CAT reporter); format: cell-based; design: expressed in transfected cells; conditions: concentration eliciting 50% of the maximum CAT activity
# T3 sequence (P10826 1-448 isoform P10826-2): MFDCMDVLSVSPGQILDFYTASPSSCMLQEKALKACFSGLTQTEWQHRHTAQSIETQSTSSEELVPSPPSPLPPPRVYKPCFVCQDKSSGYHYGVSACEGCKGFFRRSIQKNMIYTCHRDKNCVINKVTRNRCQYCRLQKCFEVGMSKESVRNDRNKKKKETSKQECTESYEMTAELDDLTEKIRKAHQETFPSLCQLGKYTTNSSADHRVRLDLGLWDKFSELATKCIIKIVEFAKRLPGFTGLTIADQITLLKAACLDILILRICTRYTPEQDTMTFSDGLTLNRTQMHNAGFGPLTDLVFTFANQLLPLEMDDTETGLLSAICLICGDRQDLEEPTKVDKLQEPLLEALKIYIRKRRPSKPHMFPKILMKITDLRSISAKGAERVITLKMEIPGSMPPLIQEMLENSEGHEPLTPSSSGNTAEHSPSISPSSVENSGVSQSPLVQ
# Method: as §1
# RARβ [3] = target: T3, RARβ; test: RAR binding, RARβ (competition binding, nuclear extracts of transfected cos-7 cells); design: expressed in transfected cells; host or cells: COS-7 (nuclear extracts); conditions: recombinant human receptors, cos-7 nuclear extracts; competition with [H^3]-4-(5,6,7,8-tetrahydro-5,5,8,8-tetramethyl-2-anthracenyl benzoic acid)
# Method: (c) The binding test was carried out on recombinant human receptors produced by the transfection of cos-7 cells with expression vectors coding for the RAR receptor subtypes.
compound,measurement,setting,value
"CC1(C)CCC(C)(C)c2cc(C3=Cc4ccc(C(=O)O)cc4OC3)ccc21 [Example 2, 3-[(5,6,7,8-tetrahydro-5,5,8,8-tetramethyl-2-naphthyl)-2-H-1-benzopyran]-7-carboxylic acid]",AC50,[1],58 nM
same,AC50,RARα,22 nM
same,AC50,RARγ,15 nM
same,AC50,RARβ [2],2 nM
"O=C(O)c1ccc2c(c1)OCC(c1ccc(O)c(C34CC5CC(CC(C5)C3)C4)c1)=C2 [Example 13, 3-[(3-(1-adamantyl)-4-hydroxphenyl)-2H-1-benzopyran]-7-carboxylic acid]",AC50,[1],107 nM
same,AC50,RARα,47 nM
same,AC50,RARγ,6 nM
same,AC50,RARβ [2],20 nM
same,Kd,RARβ [3],3300 nM
"COc1ccc(C2=Cc3ccc(C(=O)O)cc3OC2)cc1C12CC3CC(CC(C3)C1)C2 [Example 1, 3-[(3-(1-adamantyl)-4-methoxyphenyl)-2H-1-benzopyran]-7-carboxylic acid]",AC50,RARα,8 nM
same,AC50,RARγ,4 nM
same,AC50,RARβ [2],2 nM
"CC(C)(C)c1cc(C2=Cc3ccc(C(=O)O)cc3OC2)cc(C(C)(C)C)c1O [Example 11, 3-[(3,5-di-tert-butyl-4-hydroxyphenyl)-2-H-1-benzopyran]-7-carboxylic acid]",AC50,[1],320 nM
same,AC50,RARγ,157 nM
same,AC50,RARβ [2],77 nM
same,Kd,RARβ [3],3680 nM
